We go through 17 compounds from patent US5952530A, “Separation processes” (Union Carbide Chemicals & Plastics Technology Corporation, priority 1998, dated 1999).

The nature of data set [1]: Partition of polar organic molecules between hexane and acetonitrile. It counts as physicochemical. The following applies: hexane/acetonitrile equal volumes; GC; polar molecule wt%: propionaldehyde 7.5, butyraldehyde 5.2, valeraldehyde 5.5, 3-pentenenitrile 4.7. How it is done: Solutions were prepared containing equal volumes of hexane and acetonitrile. To each solution was added a polar organic molecule identified in Table L below. The mixture was vigorously shaken, then allowed to settle and phase separate. The two phases were then analyzed for content of polar molecule by GC. In Table L, the percent by weight of polar molecule added to the hexane/acetonitrile solvent mixture together with Kpartition is given for various polar molecules.

Data set [2] in a line: Extraction of Texanol from rhodium/Ligand E catalyst: Kpartition and selectivity. It counts as physicochemical. How it is done:
. To this mixture was added an equal volume of acetonitrile. The mixture was shaken for 30 minutes, then allowed to settle and phase separate for several hours. The two layers were then separated, and analyzed for content. The partition coefficient Kp of the catalyst is summarized in Table J below, together with the volume ratio of the two phases defined as Vratio=volume of the catalyst containing phase after extraction/volume of the extracting solution phase after extraction, and the selectivity of the extraction defined as Selectivity=Kpartition of catalyst/Kpartition organic material being separated from catalyst.
. […] The mixture was shaken for 30 minutes, then allowed to settle and phase separate over several hours. The two phases were then separated and analyzed for content. In Table K below, partition coefficient Kp of the catalyst and Texanol as well as the volume ratio of the two phases defined as Vratio=volume of the catalyst containing phase after extraction/volume of the extracting solution phase after extraction is summarized.

The conditions of data set [3]: for Kpartition: hexane:acetonitrile (1:1) solvent system, summary table; for partition coefficient Kp: hexane/acetonitrile solvent system, examples, Tables A and B.
The mark [4] stands for this setting: DMSO, Examples 18 (B 0.8 wt%, 223 ppm Rh), 19 (C 0.8 wt%, 222 ppm Rh), 21 (E 0.6 wt%, 136 ppm Rh).
Where [5] appears, read: polar solvent W: acetonitrile with 1 wt% water, Examples 24 (B 0.8 wt%, 223 ppm Rh), 25 (E 0.6 wt%, 120 ppm Rh).

SMILES strings stand for the structures. Where two headings read alike, the source gives them in different places. Where only a bound is given, the exact number is not on record here.

For the compound `CCC=O` [propionaldehyde], the Kpartition in data set [1] turned out to be 9.2.
As for `CC(C)C(=O)OCC(C)(C)C(O)C(C)C` (stereo not shown) [Texanol], the “Kpartition Texanol” value was 0.4 in data set [2] (hexane/acetonitrile, Vratio 5.6, Example 40) and 96 in data set [2] (toluene vs acetonitrile containing water 4/1, Example 41).
As for `CC(C)(C)CC(C)(C)c1cc(-c2cc(C(C)(C)CC(C)(C)C)cc(C(C)(C)CC(C)(C)C)c2Op2oc3ccccc3c3ccccc3o2)c(Op2oc3ccccc3c3ccccc3o2)c(C(C)(C)CC(C)(C)C)c1` [Ligand C], the “Kpartition Ligand C” value in data set [3] (hexane/DMSO, Example 12) is recorded as 68; in data set [3] (hexane/glutaronitrile, Example 13), 20. Moreover, the Kpartition in data set [3] was found to be 38; the Kpartition under setting [4] worked out at 42; the Kpartition (Glutaronitrile, Ligand 0.8 wt%, rhodium 222 ppm, Example 20) came to 43; the Kpartition (hexane/acetonitrile, Ligand 0.8 wt%, rhodium 222 ppm, Example 16) was 28.
In the case of `CCCCCCCCP(CCCCCCCC)CCCCCCCC` [Ligand J], in data set [3], the “partition coefficient Kp” value is listed as above 100 and the Kpartition is recorded as above 100.
As for `c1ccc(-c2ccccc2Op2oc3ccccc3c3ccccc3o2)c(Op2oc3ccccc3c3ccccc3o2)c1` [Ligand A, reference compound], in data set [3] (hexane/acetonitrile, Comparative Example A, control), the partitioning behavior result is recorded as “non-selective for the hydrocarbon phase”. The same compound registered a Kpartition in data set [3] of 0.04.
In data set [3], `CC(C)(C)c1cc(-c2cc(C(C)(C)C)cc(C(C)(C)C)c2Op2oc3ccccc3c3ccccc3o2)c(Op2oc3ccccc3c3ccccc3o2)c(C(C)(C)C)c1` [Ligand I] returned a Kpartition of 2.3.
In the case of `CC(C)(C)CC(C)(C)c1cc(-c2cc(C(C)(C)CC(C)(C)C)cc(C(C)(C)CC(C)(C)C)c2Op2oc3ccc(C(C)(C)C)cc3c3cc(C(C)(C)C)ccc3o2)c(Op2oc3ccc(C(C)(C)C)cc3c3cc(C(C)(C)C)ccc3o2)c(C(C)(C)CC(C)(C)C)c1` [Ligand E], the Kpartition in data set [3] is 502; the Kpartition under setting [4] came to 79; the Kpartition (DMSO, Ligand 0.6 wt%, rhodium 120 ppm, Example 23) is given as 128; the Kpartition (acetonitrile, Ligand 0.6 wt%, rhodium 120 ppm, Example 22) is 250; the Kpartition under setting [5] is reported as 352.
Consider `CC1(c2cc(-c3cc(C4(C)CCCCC4)cc(C4(C)CCCCC4)c3Op3oc4ccccc4c4ccccc4o3)c(Op3oc4ccccc4c4ccccc4o3)c(C3(C)CCCCC3)c2)CCCCC1` [Ligand G], for which the Kpartition in data set [3] amounted to 19.
`CCCC=O` [butyraldehyde] showed a Kpartition in data set [1] of 3.2.
Turning to `CCC(C)(C)c1cc(-c2cc(C(C)(C)CC)cc(C(C)(C)CC)c2Op2oc3ccccc3c3ccccc3o2)c(Op2oc3ccccc3c3ccccc3o2)c(C(C)(C)CC)c1` [Ligand H], in data set [3], the Kpartition was 6.
Regarding `CCN(CC)P(Oc1c(-c2cc(OC)cc(C(C)(C)C)c2OP(N(CC)CC)N(CC)CC)cc(OC)cc1C(C)(C)C)N(CC)CC` [Ligand K], in data set [3], the “partition coefficient Kp” value turned out to be 5 and the Kpartition worked out at 5.
`CC=CCC#N` [3-pentenenitrile]: the Kpartition in data set [1] was found to be 50.
In the case of `CC(C)(C)c1ccc(Op2oc3c(C(C)(C)C)cc(C(C)(C)C)cc3c3cc(C(C)(C)C)cc(C(C)(C)C)c3o2)c(C(C)(C)C)c1` [Ligand M], the Kpartition in data set [3] is listed as 25.
For the compound `CCCCCC(C)(C)c1cc(-c2cc(C(C)(C)CCCCC)cc(C(C)(C)CCCCC)c2Op2oc3ccccc3c3ccccc3o2)c(Op2oc3ccccc3c3ccccc3o2)c(C(C)(C)CCCCC)c1` [Ligand D], in data set [3], the Kpartition was found to be 116.
`CC(C)(C)c1cc(-c2cc(C(C)(C)C)cc(C(C)(C)C)c2Op2oc3ccc(C(C)(C)C)cc3c3cc(C(C)(C)C)ccc3o2)c(Op2oc3ccc(C(C)(C)C)cc3c3cc(C(C)(C)C)ccc3o2)c(C(C)(C)C)c1` [Ligand B] displayed a Kpartition in data set [3] of 26; a Kpartition under setting [4] of 124; a Kpartition (acetonitrile, Ligand 0.8 wt%, rhodium 223 ppm, Example 17) of 19; a Kpartition (hexane/acetonitrile, Ligand 1.5 wt%, rhodium 318 ppm, Example 15) of 34; a Kpartition under setting [5] of 27.
Turning to `CCCCC=O` [valeraldehyde], the Kpartition in data set [1] was determined as 2.0.
In data set [3], `CC(C)(C)c1ccc(OP(Oc2ccccc2-c2ccccc2OP(Oc2ccc(C(C)(C)C)cc2C(C)(C)C)Oc2ccc(C(C)(C)C)cc2C(C)(C)C)Oc2ccc(C(C)(C)C)cc2C(C)(C)C)c(C(C)(C)C)c1` [Ligand F] had a Kpartition of 100.
